Read-outs that look alike come from different tables or passages of the source.
Tests used:
Ec IspD [1] = target: T1, Ec IspD (Escherichia coli, UniProt Q46893); assay: Thermal shift (DSF) screening against Ec IspD; format: binding; details: for change in the observed melting temperature of Ec IspD: MicroSource Spectrum screening
Experimental: The library based screening technique in conjunction with the thermal shift assay was implemented to evaluate compounds from Spectrum collection.
All DSF experiments were performed in 50 mM phosphate buffer at pH 7.4, 150 mM NaCl, 1×SYPRO orange, 2% DMSO and 200 to 1000 nM of the enzyme with a total volume of 25 μL. Final enzyme concentrations used were […] for Ec IspD and 0.5 μM for Bt IspD. Samples were measured on a Bio-Rad iQ5 Real-Time PCR (Bio-Rad Life Sciences) using a temperature range of 25 to 95° C. at a rate of 1° C. per minute with the fluorescence measured every 0.5° C. every 10 seconds with wavelengths of 530 and 570 nm used for excitation and emission, respectively. The melting temperature (Tm value) was determined from the first derivative of the graph of relative fluorescence units vs. temperature.

Bacillus cereus = assay: Antibacterial preliminary screening BC; format: cell-based; details: score 0-3; further: key: 0 represents no inhibition; 3 is comparable to commercial antibiotic control
LeIspE = LeIspE (Solanum lycopersicum, UniProt P93841); assay: University of Hamburg photometric enzymatic inhibition assay LeIspE; format: biochemical, Lycopersicon esculentum; details: read-out: LeIspE IC50
Chain of LeIspE (P93841 89-401): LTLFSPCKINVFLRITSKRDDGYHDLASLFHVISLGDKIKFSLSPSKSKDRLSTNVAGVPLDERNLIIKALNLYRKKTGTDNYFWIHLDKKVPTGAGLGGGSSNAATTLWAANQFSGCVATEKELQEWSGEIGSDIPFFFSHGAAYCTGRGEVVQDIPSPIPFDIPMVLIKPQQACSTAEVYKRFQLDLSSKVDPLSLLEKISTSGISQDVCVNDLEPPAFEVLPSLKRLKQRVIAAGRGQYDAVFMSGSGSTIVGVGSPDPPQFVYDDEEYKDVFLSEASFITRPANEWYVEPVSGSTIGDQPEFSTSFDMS
How it was run: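 Photometric coupled assay with pyruvate kinase/lactate dehydrogenase following NADH (460 μM). Mix: 100 mM Tris-HCl pH 8.0, 10 mM MgCl2, 1 mM DTT, 2.5 mM phosphoenolpyruvate, 2 mM ATP, 1 mM 4-diphosphocytidyl-2-C-methylerythritol, 1.1% DMSO, 2.4 mU IspE; incubated at 27° C.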

P. falciparum IspD = P. falciparum IspD (Plasmodium falciparum, UniProt Q8I273); assay: IspD assay (Washington University, EnzCheck phosphate) PfIspD; format: biochemical
Chain of P. falciparum IspD (Q8I273 entry or part of it): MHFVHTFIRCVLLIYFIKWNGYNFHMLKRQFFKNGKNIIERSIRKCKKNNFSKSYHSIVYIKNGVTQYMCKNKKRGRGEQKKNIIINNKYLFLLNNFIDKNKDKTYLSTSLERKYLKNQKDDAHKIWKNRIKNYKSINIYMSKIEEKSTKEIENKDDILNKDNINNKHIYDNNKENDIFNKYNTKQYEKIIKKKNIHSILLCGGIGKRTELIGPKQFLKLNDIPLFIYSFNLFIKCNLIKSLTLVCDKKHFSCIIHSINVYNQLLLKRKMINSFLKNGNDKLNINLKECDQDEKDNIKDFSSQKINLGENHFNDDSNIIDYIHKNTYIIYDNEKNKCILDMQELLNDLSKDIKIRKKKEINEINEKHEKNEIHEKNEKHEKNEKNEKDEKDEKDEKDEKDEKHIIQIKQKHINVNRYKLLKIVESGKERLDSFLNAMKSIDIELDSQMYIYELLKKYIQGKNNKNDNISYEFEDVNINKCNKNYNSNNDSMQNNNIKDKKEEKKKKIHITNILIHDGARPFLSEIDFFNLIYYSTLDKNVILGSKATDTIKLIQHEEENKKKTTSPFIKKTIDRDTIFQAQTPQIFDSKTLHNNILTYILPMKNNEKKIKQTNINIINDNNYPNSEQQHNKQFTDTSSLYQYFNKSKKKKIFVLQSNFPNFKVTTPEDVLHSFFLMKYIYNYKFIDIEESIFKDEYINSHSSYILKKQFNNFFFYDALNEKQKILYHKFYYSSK

[2] = test system: Burkholderia thailandensis; format: cell-based; details: preliminary screening, score 0-3
E. coli IspD = E. coli IspD (Escherichia coli, UniProt Q46893); assay: IspD assay (Washington University, EnzCheck phosphate) EcIspD; format: biochemical; details: up to 100 μM; bar graph at 12.5 and 100 μM
Chain of E. coli IspD (Q46893 whole entry): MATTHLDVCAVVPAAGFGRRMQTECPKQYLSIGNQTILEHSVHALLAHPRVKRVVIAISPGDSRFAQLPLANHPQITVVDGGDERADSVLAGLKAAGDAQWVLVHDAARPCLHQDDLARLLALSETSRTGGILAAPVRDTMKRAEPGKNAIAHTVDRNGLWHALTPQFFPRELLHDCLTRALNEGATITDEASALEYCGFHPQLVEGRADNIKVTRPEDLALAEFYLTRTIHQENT
Experimental: Compounds were tested against IspD from Escherichia coli and Plasmodium falciparum. The assay measured activity through monitoring phosphate levels released by IspD enzyme over time using conditions published previously. The assay utilized the EnzCheck phosphate assay kit to quantify phosphate released by IspD. Reactions were done in a 96-well plate with each well containing a final volume of 50 μL. Concentrations of reagents were as follows: 100 mM NaCl, 25 mM Tris at pH 7.0, 7.5 mM MgCl2, 1 mM dithiothreitol, 1 U/mL purine nucleoside phosphorylase, and 0.1 U/mL yeast inorganic pyrophosphatase, 50 μM CTP, 500 μM MEP, 0.1% DMSO, and 0.2 mM 2-Amino-6-mercapto-7-methyl puring riboside. Reactions with EclspD used 2 nM EclspD and reactions with PfIspD used 50 nM PfIspD. Reactions involved pre-warming the enzyme and buffers to 37° C. with different inhibitor concentrations followed by the addition of the purified MEP substrate. Absorbance was measured at 360 nm over time and values were used to create regression analysis curves from three trials and values were converted to (μM MEP)(μM enzyme)^−1s^−1 using a standard phosphate curve. These values were then used to identify percent activity compared to enzyme activity without the inhibitor. Results are indicated.

AtIspF = AtIspF (Arabidopsis thaliana, UniProt Q9CAK8); assay: University of Hamburg photometric enzymatic inhibition assay AtIspF; format: biochemical; details: read-out: AtIspF IC50
Chain of AtIspF (Q9CAK8 53-231): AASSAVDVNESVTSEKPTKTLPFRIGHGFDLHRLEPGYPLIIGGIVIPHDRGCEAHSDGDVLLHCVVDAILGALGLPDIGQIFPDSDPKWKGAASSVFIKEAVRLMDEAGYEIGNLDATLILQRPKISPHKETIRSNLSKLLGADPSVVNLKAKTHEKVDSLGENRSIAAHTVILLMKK
How it was run: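 Coupled photometric assay (CMP kinase/pyruvate kinase/lactate dehydrogenase, NADH consumption) with 2.4 mU AtIspF and 1 mM 4-diphosphocytidyl-2C-methylerythritol 2-phosphate, 2 mM ATP, in 100 mM Tris-HCl pH 8.0, 10 mM MgCl2, 1.1% DMSO. Monitored at 27 °C.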

AtIspD = AtIspD (Arabidopsis thaliana, UniProt P69834); assay: University of Hamburg photometric enzymatic inhibition assay AtIspD; format: biochemical; details: read-out: AtIspD IC50
Chain of AtIspD (P69834 62-302): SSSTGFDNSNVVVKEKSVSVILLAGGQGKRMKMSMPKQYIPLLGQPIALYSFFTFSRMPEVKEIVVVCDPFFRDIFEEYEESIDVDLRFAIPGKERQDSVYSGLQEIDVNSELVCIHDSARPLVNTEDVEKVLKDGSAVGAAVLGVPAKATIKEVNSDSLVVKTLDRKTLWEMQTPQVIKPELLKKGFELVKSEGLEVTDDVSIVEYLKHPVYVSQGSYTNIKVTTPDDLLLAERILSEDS
How it was run: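 Coupled photometric assay: 2.4 mU AtIspD with 1 mM (2R,3S)-2,3-dihydroxy-4-oxopentyl phosphate, 2.1 mM CTP, excess IspE (0.4 U), ATP, pyruvate kinase/lactate dehydrogenase and 460 μM NADH. Run in 100 mM Tris-HCl pH 8.0, 10 mM MgCl2, 1 mM DTT, 1.1% DMSO at 27 °C, monitored photometrically.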

Micrococcus luteus = assay: Antibacterial preliminary screening ML; format: cell-based; details: score 0-3; further: key: 0 represents no inhibition; 3 is comparable to commercial antibiotic control
Escherichia coli = assay: Antibacterial preliminary screening EC; format: cell-based; details: score 0-3; further: key: 0 represents no inhibition; 3 is comparable to commercial antibiotic control
Mycobacterium smegmatis = assay: Antibacterial preliminary screening MS; format: cell-based; details: score 0-3; further: key: 0 represents no inhibition; 3 is comparable to commercial antibiotic control
Klebsiella pneumonia = assay: Antibacterial preliminary screening KP; format: cell-based; details: score 0-3
[3] = target: Lycopersicon esculentum IspE (LeIspE) (Solanum lycopersicum, UniProt P93841); assay: Thermal shift assay against LeIspE; format: binding
Chain of Lycopersicon esculentum IspE (LeIspE) (P93841 89-401): as the sequence (P93841 89-401) above

[4] = test system: Corynebacterium pseudodiphtheriae; assay: Antibacterial preliminary screening CP; format: cell-based; details: score 0-3;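 further: 0 is no inhibition and 3 matches the commercial antibiotic control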
lettuce seeds = assay: Lettuce leaf assay; format: in vivo; set-up: key: 0 (no effect); 5(complete inhibition or bleaching); details: ranking 0-5
How it was run: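 Qualitative assay: compounds in volatile organic solvent applied to filter paper in a petri dish, solvent evaporated, lettuce seeds and 5 mL water added to give test concentrations. Germination, root development and leaf bleaching scored days 3 and 4, ranked 0 (no effect) to 5 (complete inhibition or bleaching).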

Pseudomonas aeruginosa = assay: Antibacterial preliminary screening PA; format: cell-based; details: score 0-3
Corynebacterium xerosis = assay: Antibacterial preliminary screening CX; format: cell-based; details: score 0-3
[5] = target: T2, Mycobacterium tuberculosis IspD (MtIspD) (Mycobacterium tuberculosis, UniProt P9WKG9); assay: Thermal shift assay against MtIspD; format: binding
T2 sequence (P9WKG9 1-231): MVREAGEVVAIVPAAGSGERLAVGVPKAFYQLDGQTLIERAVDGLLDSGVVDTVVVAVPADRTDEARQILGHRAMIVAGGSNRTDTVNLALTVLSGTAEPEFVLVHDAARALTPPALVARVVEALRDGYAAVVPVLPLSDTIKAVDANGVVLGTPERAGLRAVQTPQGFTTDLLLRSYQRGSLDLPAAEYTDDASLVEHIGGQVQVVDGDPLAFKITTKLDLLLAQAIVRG

Ec IspD [6] = target: T1, Ec IspD; assay: EnzChek enzymatic activity assay Ec IspD; format: biochemical
Experimental: The EnzChek® assay has a phosphate sensitivity of 2-150 μM. To ensure there is no interference caused by assay components, three standards were performed on each plate: buffer only, without CTP and without MEP.
Here, for the plate-based assay, IspD converts MEP to CDP-ME pyrophosphate, which in turn is converted to inorganic phosphate (Pi) with the enzyme inorganic pyrophosphatase. The EnzChek® Phosphate Assay kit follows the formation of the inorganic phosphate through a reaction with 2-amino-6-mercapto-7-methylpurine riboside (MESG) and the enzyme purine nucleoside phosphorylase (PNP). This reaction converts the MESG into ribose 1-phosphate and 2-amino-6-mercapto-7-methylpurine resulting in a spectrophotometric shift in a maximum absorbance from 330 nm to 360 nm. Reactions were performed in 50 μL final volumes in 96-well clear flat bottom plates, and were initiated by addition of 50 ng purified Ec IspD. Absorbance at 360 nm was measured every 31 seconds for 20 minutes on a Synergy 2 Multi-Mode plate reader (BioTek), preheated to 37° C. Final concentration of reagents was as follows: 1×EnzChek® reaction buffer (50 mM Tris pH 7.5, 1 mM magnesium chloride (MgCl2), 100 μM sodium azide (NaN3)), 0.2 mM MESG, 1 U/ml PNP, 1 U/mL inorganic Pyrophosphatase (NEB), 200 mM CMP (Sigma), and 50 μM MEP (Echelon).

[7] = target: Arabidopsis thaliana IspD (Arabidopsis thaliana, UniProt P69834); details: read-out: AtIspD IC50, cited from earlier work
Chain of Arabidopsis thaliana IspD (P69834 62-302): as the sequence (P69834 62-302) above

[8] = target: Mycobacterium paratuberculosis IspD (MpIspD) (Mycolicibacterium paratuberculosis, UniProt Q743W5); assay: Thermal shift assay against MpIspD; format: binding; details: MpIspD
Chain of Mycobacterium paratuberculosis IspD (MpIspD) (Q743W5 whole entry): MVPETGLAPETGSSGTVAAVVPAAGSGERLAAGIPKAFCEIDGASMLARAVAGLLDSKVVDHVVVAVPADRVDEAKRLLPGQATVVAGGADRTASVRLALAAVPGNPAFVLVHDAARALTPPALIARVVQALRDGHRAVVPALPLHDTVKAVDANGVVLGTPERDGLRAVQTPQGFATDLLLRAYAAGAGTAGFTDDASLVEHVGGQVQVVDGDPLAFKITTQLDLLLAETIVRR

Bt IspD = Bt IspD (Burkholderia thailandensis, UniProt Q2SWT6); format: binding
Chain of Bt IspD (Q2SWT6 whole entry): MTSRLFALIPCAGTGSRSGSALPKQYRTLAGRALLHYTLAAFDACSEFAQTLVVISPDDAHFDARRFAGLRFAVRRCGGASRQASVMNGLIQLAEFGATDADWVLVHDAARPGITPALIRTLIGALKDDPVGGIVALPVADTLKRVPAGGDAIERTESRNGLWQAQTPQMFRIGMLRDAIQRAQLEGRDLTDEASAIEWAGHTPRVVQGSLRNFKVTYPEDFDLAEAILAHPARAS
Experimental: ITC studies were performed with a Microcal VP-ITC titration calorimeter (Malvern Instruments). Proteins were dialyzed overnight against four liters of buffer (20 mM sodium phosphate, 150 mM NaCl, pH 7.4). Compounds were dissolved in DMSO and brought to concentration with the dialysis buffer, with a maximum DMSO concentration of 10% by volume, and centrifuged at 10,000 RPM for 10 minutes. DMSO concentrations were matched between the protein and ligand. The dialysis buffer was used for all sample dilutions to ensure buffers matching between the titrant and titrate, thus minimizing the excess heat due to buffer mismatch. The Pace method was utilized for the determination of the extinction coefficients at 280 nm for Ec IspD (30,940 M^−1 cm^−1) and Bt IspD (41,940 M^−1 cm^−1). Cytidine triphosphate's extinction coefficient was 9,100 M^−1 cm^−1. The absorbance values of protein and CTP solutions were determined using the NanoDrop (in triplicate). All other compound concentrations were determined by dry weight. ITC experiments were performed with IspD in the cell and ligand in the syringe, which is at 100 times the concentration of the sample in the cell due to the low predicted affinities for IspD.
The initial injection volume was 2 μL (omitted) followed by 27 10 μL injections, every 240 seconds. Samples were run at 25° C., at pH 7.4, with a stirring speed of 307 RPM. Dilution runs were performed to allow determination of background heats caused by solution mismatch and instrument noise. Dilution runs were performed with ligand (at the same concentration as in the experiment run) in the syringe titrated into the dialysis buffer in the cell. Data were fit using OriginPro 7 with the ITC add-on by the manufacturer.
ITC studies were performed to observe the dissociation constant along with thermodynamic properties of the reactant CTP with Bt IspD.

T1 sequence (Q46893 whole entry): as the sequence (Q46893 whole entry) above

Compound	BC score (Bacillus cereus)	IC50 (LeIspE)	BT score [2]	melting point	IC50 (AtIspF)	IC50 (AtIspD)	ML score (Micrococcus luteus)	EC score (Escherichia coli)	MS score (Mycobacterium smegmatis)	KP score (Klebsiella pneumonia)	LeIspE melting point change [3]	LeIspE melting temp [3]	CP score [4]	PA score (Pseudomonas aeruginosa)	CX score (Corynebacterium xerosis)	MtIspD melting temp [5]	also measured
CC(=O)[O-].CC(=O)[O-].[Cd+2] [cadmium acetate]	–	–	–	–	–	–	–	–	–	–	–	–	–	–	–	–	change in the observed melting temperature of Ec IspD (Ec IspD [1]): −13.53 °C
Clc1ccc(-c2nnc(-c3cc4ccccc4[nH]3)o2)cc1 [HGN-213, 2-(4-chlorophenyl)-5-(1H-indol-2-yl)-1,3,4-oxadiazole]	0	326 ± 29 µM	0	265 to 270 °C	> 1000 µM	490 µM	0	0	0	0	−2.00 °C	47.50 °C	0	0	0	48.8 °C	IC50 (P. falciparum IspD): ~100 µM; inhibition of E. coli IspD activity (E. coli IspD): some activity; Bleaching (lettuce seeds; 0.2 mM): 0; Germination (lettuce seeds; 0.2 mM): 1; Root Dev. (lettuce seeds; 0.2 mM): 0; MtIspD melting point change [5]: 0.8 °C
C[CH2][Hg][Cl] [ethyl mercuric chloride]	–	–	–	–	–	–	–	–	–	–	–	–	–	–	–	–	effect on thermal stability of Ec IspD (Ec IspD [1]): affected the stability of the enzyme
[O-][n+]1ccccc1[S][Zn][S]c1cccc[n+]1[O-] [Zinc Pyrathione]	–	–	–	–	–	–	–	–	–	–	–	–	–	–	–	–	change in the observed melting temperature of Ec IspD (Ec IspD [1]): −7.72 °C
FC(F)(F)c1ccc(-c2nnc(-c3cc4ccccc4[nH]3)o2)cc1 [HGN-214, 2-(1H-indol-2-yl)-5-(4-(trifluoromethyl)phenyl)-1,3,4-oxadiazole]	0	269 ± 23 µM	0	258 to 260 °C	> 1000 µM	> 1000 µM	0	0	0	0	−1.00 °C	48.50 °C	0	0	0	49.8 °C	IC50 (P. falciparum IspD): ~100 µM; inhibition of E. coli IspD activity (E. coli IspD): some activity; Bleaching (lettuce seeds; 0.2 mM): 0; Germination (lettuce seeds; 0.2 mM): 0; Root Dev. (lettuce seeds; 0.2 mM): 0; Bleaching (lettuce seeds; 0.5 mM): 0; Germination (lettuce seeds; 0.5 mM): 1; Root Dev. (lettuce seeds; 0.5 mM): 0; Bleaching (lettuce seeds; 1.0 mM): 0; Germination (lettuce seeds; 1.0 mM): 3; Root Dev. (lettuce seeds; 1.0 mM): 0
CC(C)c1cc2c(c(O)c1O)[C@@]1(C(=O)O)CCCC(C)(C)[C@@H]1CC2 [carnosic acid]	–	–	–	–	–	–	–	–	–	–	–	–	–	–	–	–	IC50 (Ec IspD [6]): 794 ± 100 µM
c1ccc2[nH]c(-c3nnc(C4CCCC4)o3)cc2c1 [HGN-252, 2-cyclopentyl-5-(1H-indol-2-yl)-1,3,4-oxadiazole]	0	> 1000 µM	0	150 to 154 °C	> 1000 µM	> 1000 µM	0	0	0	0	−2.50 °C	47.00 °C	0	0	0	49.5 °C	inhibition of E. coli IspD activity (E. coli IspD): significant activity; Bleaching (lettuce seeds; 0.5 mM): 0; Germination (lettuce seeds; 0.5 mM): 1; Root Dev. (lettuce seeds; 0.5 mM): 0; Bleaching (lettuce seeds; 1.0 mM): 0; Germination (lettuce seeds; 1.0 mM): 2; Root Dev. (lettuce seeds; 1.0 mM): 0
Oc1c(Br)cc(Br)cc1-c1[nH]c(Br)c(Br)c1Br [pentabromopseudilin]	–	–	–	–	–	–	–	–	–	–	–	–	–	–	–	–	IC50 ([7]; with 40 μM Cd2+ added): 1.4 ± 0.2 µM; IC50 ([7]; without a metal added): 13 ± 2 µM
O=C(/C=C/c1ccc(O)cc1)c1ccc(O)cc1O [isoliquiritigenin]	–	–	–	–	–	–	–	–	–	–	–	–	–	–	–	–	IC50 (Ec IspD [6]): 279 ± 12 µM
FC(F)(F)c1nnc(-c2cc3ccccc3[nH]2)o1 [HGN-211, 2-(1H-indol-2-yl)-5-(trifluoromethyl)-1,3,4-oxadiazole]	0	> 1000 µM	0	182 to 184 °C	> 1000 µM	> 1000 µM	0	0	0	0	−0.75 °C	48.75 °C	0	0	0	49.3 °C	increase in melting point over HGN-207 [8]: 0.3 °C; Bleaching (lettuce seeds; 0.5 mM): 0; Germination (lettuce seeds; 0.5 mM): 1; Root Dev. (lettuce seeds; 0.5 mM): 0; Bleaching (lettuce seeds; 1.0 mM): 0; Germination (lettuce seeds; 1.0 mM): 2; Root Dev. (lettuce seeds; 1.0 mM): 0; MtIspD melting point change [5]: 1.3 °C
[O-][n+]1ccccc1S [2-mercaptopyradine-N-oxide, 2-mercaptopyridine-N-oxide]	–	–	–	–	–	–	–	–	–	–	–	–	–	–	–	–	effect on thermal stability of Ec IspD (Ec IspD [1]): did not have an effect on the thermal stability
Nc1ccn([C@@H]2O[C@H](COP(=O)(O)OP(=O)(O)OP(=O)(O)O)[C@@H](O)[C@H]2O)c(=O)n1 [CTP, Cytidine triphosphate]	–	–	–	–	–	–	–	–	–	–	–	–	–	–	–	–	KD app (ITC, words) (Bt IspD): in the millimolar range; entropic contribution −TΔS (ITC) (Bt IspD): 5.6±1.838; ΔH° (ITC) (Bt IspD; stoichiometry fixed at two CTPs per dimer): -6.991 ± 1.749 kcal/mol
C[CH2][Hg][S]c1ccccc1C(=O)[O-].[Na+] [thimerosal, reference compound]	–	–	–	–	–	–	–	–	–	–	–	–	–	–	–	–	IC50 (Ec IspD [6]; EnzChek assay, read-out: Ec IspD IC50): 381 ± 12 µM; change in the observed melting temperature of Ec IspD (Ec IspD [1]): +3.53 °C

Source: patent US11026426B2, “Oxadiazole and phenol derivatives as antibacterial and/or herbicidal agents” (NORTHERN ILLINOIS RESEARCH FOUNDATION, priority 2017, dated 2021)
